We go through four compounds from patent US20210270855A1, “PIP2 AS A MARKER FOR HDL FUNCTION AND CARDIOVASCULAR DISEASE RISK” (The Cleveland Clinic Foundation, priority 2016, published 2021).

The test system of experiment [1] is ABCA1 induced RAW264.7 cells. Briefly: Cholesterol efflux to apoA1 from ABCA1-induced RAW264.7 cells. The format is cell-based, mouse. Particulars: for ABCA1-dependent cholesterol efflux to apoA1: RAW264.7, 1 μM inhibitor, apoA1 chase. As for the experimental part:
(§1) Cell growth and ABCA1 induction: All cell culture incubations were performed at 37° C. in humidified 5% CO2 incubator. The growth media was Dulbecco's Modified Eagle Medium (DMEM) with 10% fetal calf serum, 100 μg/mL penicillin, 100 μg/mL […]. ABCA1 was induced in […] cells by 16-24 hr incubation with 0.3 mM 8Br-cAMP^34. ABCA1 was induced in BHK cells by 16-24 hr incubation with 10 nM mifepristone^31. Inducers were included in the media during subsequent assays. ABCA1 expression was confirmed by western blot using the AC10 antibody (Santa Cruz Biotech).
Cholesterol efflux assay: On day 1, cells were plated on 24-well plates at a density of 20,000 to 400,000 cells per well. On day 2, the cells were labeled with […] [^3H]cholesterol in DMEM containing 1% FBS. On day 3, the cells when indicated were treated with or without ABCA1 inducers in serum-free DMEM. On day 4 (or day 3 for HEK293 cells and ABCA1 stably transfected cells) the cells were washed and chased for 4-6 hr in serum-free DMEM in the presence or absence of 5 μg/ml apoA1. The radioactivity in the chase media was determined after brief centrifugation to pellet any residual debris. Radioactivity in the cells was determined by extraction in hexane:isopropanol (3:2) with the solvent evaporated in a scintillation vial prior to counting. The percent cholesterol efflux was calculated as 100×(medium dpm)/(medium dpm+cell dpm).
Tmem55b knockdown: The siRNA to mouse Tmem55b (Origene, #SR408149) and scrambled control were transfected in RAW264.7 cells using siTran 1.0 (Origene). The cellular protein extracts were prepared using NP-40 lysis buffer containing protease inhibitors. The knockdown efficacy was determined by western blot using anti Tmem55b antibody (Santa Cruz).

The target in experiment [2] is T1, immobilized apoA1 (Homo sapiens, UniProt P02647).
T1 construct: ApoA1 was purified form human plasma^29, and dialyzed against PBS; from tissue; host or cells: human plasma
T1 sequence (P02647 25-267 limits assumed): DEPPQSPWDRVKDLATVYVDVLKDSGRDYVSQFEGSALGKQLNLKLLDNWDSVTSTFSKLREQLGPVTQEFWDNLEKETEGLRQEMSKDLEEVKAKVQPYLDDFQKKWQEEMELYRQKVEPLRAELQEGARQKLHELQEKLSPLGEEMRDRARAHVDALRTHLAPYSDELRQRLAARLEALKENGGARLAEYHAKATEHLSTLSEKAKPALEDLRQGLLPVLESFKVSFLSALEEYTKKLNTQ
Briefly: Surface plasmon resonance, lipid binding to immobilized apoA1. Particulars: biotinylated apoA1 on sensor chip; PC at 1 μM. The procedure: (§2) Surface Plasmon resonance: Binding kinetic of PIP2 with different apolipoproteins was analyzed using a Biacore3000 instrument. Either biotinylated apoA1 or biotinylated PIP2 was immobilized on a streptavidin (SA) sensor chip (GE Healthcare). The immobilized apoA1 or PIP2 was stable over the course of the experiment and baseline drift was <10 response units (RU)/h after the washing with Hepes buffered saline (FIBS) buffer. Different concentrations of apoA1 or PIP2 were injected using the KINJECT procedure at flow-rate of 10 μl/min and dissociation was monitored by injecting FIBS buffer. The injections were performed in triplicate for each ligand concentration. For comparing binding kinetics of PIP2 with apoA1, apoA2 and apoE, these proteins were immobilized by covalent coupling on a CMS sensor chip (GE Healthcare) using EDC-NHS reagents. PIP2 was injected as described above. Corrected response data were fitted with BIAevaluation software version 4.01, and Kd values were calculated.
A general note: In SPR one partner is held on a chip, and binding of the other changes the refractive index at the surface.

For experiment [3], the target named is T2, apoA2 (Homo sapiens, UniProt P02652).
T2 construct: purchased Origene TP721104
T2 sequence (P02652 19-100): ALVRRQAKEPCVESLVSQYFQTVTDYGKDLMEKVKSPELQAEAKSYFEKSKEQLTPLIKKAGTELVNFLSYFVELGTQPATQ
The experiment can be described thus: Surface plasmon resonance, PIP2 binding to immobilized apoA2. The procedure: as §2

The target of experiment [4] is T3, apoE (Homo sapiens, UniProt P02649).
T3 construct: purchased Origene TP723016
T3 sequence (P02649 19-317): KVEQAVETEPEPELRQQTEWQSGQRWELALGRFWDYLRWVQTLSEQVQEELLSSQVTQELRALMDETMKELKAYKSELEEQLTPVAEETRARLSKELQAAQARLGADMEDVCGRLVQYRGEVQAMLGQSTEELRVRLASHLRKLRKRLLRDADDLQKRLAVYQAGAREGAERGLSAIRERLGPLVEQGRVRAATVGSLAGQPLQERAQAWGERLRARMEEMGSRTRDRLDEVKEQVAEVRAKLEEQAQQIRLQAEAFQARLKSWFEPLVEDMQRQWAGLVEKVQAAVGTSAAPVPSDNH
The experiment can be described thus: Surface plasmon resonance, PIP2 binding to immobilized apoE. As for the experimental part: as §2

Experiment [5] deals with apoA1 (Homo sapiens, UniProt P02647). The experiment can be described thus: Fluorescence anisotropy, apoA1 binding to bodipy-labeled PIP2. Particulars: summary statement in the detailed description; read-out: dissociation constant of apoA1 binding to PIP2.
Chain of apoA1 (P02647 25-267 limits assumed): as the sequence (P02647 25-267 limits assumed) above
The subject of experiment [6] is ABCA1 expressing RAW264.7 cells. The experiment can be described thus: ApoA1 cell binding by flow cytometry, RAW264.7 cells. The format is cell-based, mouse. Particulars: ABCA1-induced RAW264.7, apoA1 pre-incubated with PIP2 (5:1 mole ratio). The procedure:
as §1
Cell surface PS, PIP2, and apoA1 binding assays via flow cytometry: Cell surface PS levels were determined by flow cytometry after cell scraping in PBS, re-suspension in Annexin V binding buffer, and incubation with AnnexinV-Cy5 (Biovision) at room temperature for 5 minutes in the dark. Cell surface PIP2 levels were determined by flow cytometry by incubation with Alexa647 or FITC labeled anti-PIP2 antibody (Echelon) in phenol red-free, serum-free, DMEM at room temperature for 30 min. Human apoA1 was labeled with Alexa647 (Molecular Probes) on free amines using a 6:1 mole ratio of dye:apoA1. Alexa647-apoA1 binding was determined by flow cytometry after incubation with cells for 45 minutes at room temperature. […] Data was analyzed by Flowjo software and the median relative fluorescent intensities were compared.

On to `CC(C)(C)C(=O)Nc1ccc2c(c1)C(=O)C(=O)c1ccccc1-2` [SF1670], for which, in experiment [1], the “ABCA1-dependent cholesterol efflux to apoA1” value was “decreased”.
`CC(=O)Nc1nc(C)c(-c2ccc(Cl)c(S(=O)(=O)NCCO)c2)s1` [PIK-93]: the “ABCA1-dependent cholesterol efflux to apoA1” value in experiment [1] is reported as “decreased”.
With `CCCCC/C=C\C/C=C\C/C=C\C/C=C\CCCC(=O)O[C@H](COC(=O)CCCCCCCCCCCCCCCCC)COP(=O)(O)O[C@@H]1[C@H](O)[C@H](O)[C@@H](OP(=O)(O)O)[C@H](OP(=O)(O)O)[C@H]1O` [PIP2, phosphatidylinositol (4,5) bis-phosphate], in experiment [2], the “binding to immobilized apoA1 (SPR)” value is reported as “direct binding”. Further, the “direct binding to apoA2 (SPR)” value in experiment [3] is “direct binding”. For the same compound, the “direct binding to apoE (SPR)” value in experiment [4] is given as “direct binding”. In experiment [1] (ABCA1-induced RAW264.7, apoA1 5 μg/ml pre-incubated with PIP2 (PIP2:apoA1 5:1 mole ratio)), the “cholesterol efflux to apoA1” value is “decreased”. Further, the Kd in experiment [5] is around 100 nM. Further, in experiment [6], the apoA1 binding result is listed as “decreased”.
For phosphatidylcholine [PC], the “binding to immobilized apoA1 (SPR)” value in experiment [2] is “no binding”.
